Laboratory results: patent publication US9067898B1, “Isothiazole derivatives as GPR120 agonists for the treatment of type II diabetes” (Janssen Pharmaceutica NV, priority 2014, dated 2015)

Key:
[1] = target: T1, Human GPR120 short form (Homo sapiens, UniProt Q5NUL3); experiment: Human GPR120 calcium flux assay (FLIPR), Procedure Calcium A; format: cell-based; details: HEK-293 cells expressing human GPR120 short form, 2500 cells/well; read-out: GPR120 Ca2+ Assay A EC50
T1 construct: expressed in transfected cells
T1 sequence (Q5NUL3 1-361): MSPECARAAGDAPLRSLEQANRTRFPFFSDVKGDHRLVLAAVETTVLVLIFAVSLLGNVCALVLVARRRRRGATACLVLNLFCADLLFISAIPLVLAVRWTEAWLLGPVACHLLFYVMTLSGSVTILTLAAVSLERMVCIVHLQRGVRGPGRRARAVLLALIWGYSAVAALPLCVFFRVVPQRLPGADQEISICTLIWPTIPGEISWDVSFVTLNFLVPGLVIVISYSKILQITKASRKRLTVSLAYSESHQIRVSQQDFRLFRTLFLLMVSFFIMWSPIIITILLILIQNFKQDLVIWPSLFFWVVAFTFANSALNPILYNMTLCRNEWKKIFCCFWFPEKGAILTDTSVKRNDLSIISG
Outline: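 HEK293 cells stably expressing the short isoform (NM_001195755.1), 2500/well, starved 1 h, then loaded with Fluo-4 NW plus probenecid (30 min 37 °C, 15 min RT). Compound solutions 0.012–100 μM, 0.2% DMSO final; FLIPR read 300 s after addition. EC50 from Fmax−Fmin fitted to variable-slope sigmoid (Hill <2).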

[2] = target: T2, long form of human GPR120 (Homo sapiens, UniProt Q5NUL3); experiment: Human GPR120 DiscoveRx PathHunter Beta-Arrestin assay, Procedure β-arrestin A; format: cell-based; details: PathHunter CHO-K1 GPR120 β-Arrestin cell line, 3000 cells per well, read-out: hGPR120 β-arrestin A EC50
T2 construct: host or cells: PathHunter CHO-K1 GPR120 β-Arrestin Cell Line
T2 sequence (Q5NUL3 1-377 isoform Q5NUL3-1): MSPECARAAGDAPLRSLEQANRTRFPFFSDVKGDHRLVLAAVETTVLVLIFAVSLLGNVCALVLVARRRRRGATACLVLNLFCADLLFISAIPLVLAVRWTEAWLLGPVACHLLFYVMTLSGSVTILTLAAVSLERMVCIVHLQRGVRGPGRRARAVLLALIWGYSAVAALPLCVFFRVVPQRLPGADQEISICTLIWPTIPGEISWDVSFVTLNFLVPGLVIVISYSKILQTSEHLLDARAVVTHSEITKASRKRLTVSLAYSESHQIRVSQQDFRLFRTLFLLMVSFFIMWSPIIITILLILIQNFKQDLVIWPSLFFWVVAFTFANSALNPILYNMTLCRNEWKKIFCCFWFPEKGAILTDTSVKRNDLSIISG
T2 sequence (P32121 whole entry partner): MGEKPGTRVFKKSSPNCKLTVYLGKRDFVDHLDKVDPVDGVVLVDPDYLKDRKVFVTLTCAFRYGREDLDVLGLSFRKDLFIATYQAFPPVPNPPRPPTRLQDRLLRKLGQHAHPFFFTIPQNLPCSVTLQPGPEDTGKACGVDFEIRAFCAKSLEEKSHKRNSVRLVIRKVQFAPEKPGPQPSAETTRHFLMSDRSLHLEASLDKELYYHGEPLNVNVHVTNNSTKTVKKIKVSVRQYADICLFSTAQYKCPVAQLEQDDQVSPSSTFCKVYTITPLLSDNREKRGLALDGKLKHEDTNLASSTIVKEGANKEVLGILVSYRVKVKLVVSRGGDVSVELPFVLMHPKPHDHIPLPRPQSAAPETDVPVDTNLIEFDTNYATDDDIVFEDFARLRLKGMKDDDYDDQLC
Outline: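 PathHunter CHO-K1 β-arrestin cells expressed long-form GPR120 (Procedure A, 3000 cells/well) or short-form GPR120 (Procedure B, 5000 cells/well). Compounds were serially diluted from 25 µM and incubated 90 min at 37 °C in HBSS/20 mM HEPES/0.1% BSA, pH 7.4. Luminescence was read after 60 min detection at RT; EC50 comes from % activity versus positive control, Hill slope fixed at 1.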

Structure (SMILES) | EC50 [1] [nM] | EC50 [2] [nM]
O=C(O)CCc1ccc(OCc2c(-c3ccc(Cl)cc3)nsc2C(F)(F)F)c(Br)c1 [Cpd 69, 3-(3-bromo-4-[[3-(4-chlorophenyl)-5-(trifluoromethyl)-1,2-thiazol-4-yl]methoxy]phenyl)propanoic acid] | 31 | 83
COc1ccc(-c2nsc(C(F)(F)F)c2COc2c(F)cc(CCC(=O)O)cc2F)cn1 [Cpd 98, 3-(3,5-difluoro-4-((3-(6-methoxypyridin-3-yl)-5-(trifluoromethyl)isothiazol-4-yl)methoxy)phenyl) propanoic acid] | 74 | 185
OCCCc1cc(F)c(OCc2c(-c3ccc(Cl)cc3)csc2C(F)(F)F)c(F)c1 [Cpd 46, 3-(4-[[4-(4-chlorophenyl)-2-(trifluoromethyl)thiophen-3-yl]methoxy]-3,5-difluorophenyl)propan-1-ol] | 165 | 125
Cc1c(CCC(=O)O)cc(F)c(OCc2csnc2-c2ccc(Cl)cc2)c1F [Cpd 231, 3-(4-((3-(4-chlorophenyl)isothiazol-4-yl)methoxy)-3,5-difluoro-2-methylphenyl)propanoic acid] | 1020 | 961
Cc1c(CCCO)cc(F)c(OCc2c(-c3ccc(Cl)cc3)nsc2C(F)(F)F)c1F [Cpd 223, 3-(4-((3-(4-chlorophenyl)-5-(trifluoromethyl)isothiazol-4-yl)methoxy)-3,5-difluoro-2-methylphenyl)propan-1-ol] | 770 | 182
O=C(O)CCc1cc(F)c(OCc2csnc2-c2ccc(Cl)cc2)c(F)c1 [Cpd 179, 3-(4-((3-(4-chlorophenyl)isothiazol-4-yl)methoxy)-3,5-difluorophenyl)propanoic acid] | 268 | 490
CCc1ccc(-c2cc(Cl)sc2COc2c(F)cc(CCC(=O)O)cc2F)cc1 [Cpd 8, 3-(4-((5-chloro-3-(4-ethylphenyl)thiophen-2-yl)methoxy)-3,5-difluorophenyl)propanoic acid] | 114 | 167
